Measured values published in patent US10910084B2, “Method for modelling, optimizing, parameterizing, testing and validating a dynamic network with network perturbations” (Albert-Ludwigs-Universität Freiburg, priority 2011, dated 2021).

Key:
Assay type in all cases: cell-based
[1] = system: mTOR-pS2481 (mTORC2 readout) in HeLa cells; experiment: mTOR-pS2481 immunoblot of whole cell lysates, HeLa cells starved and induced with aa/insulin
Experimental: (§1) Experiments were performed in particular in HeLa α Kyoto cells and C2C12 myoblasts. For inducible knock down of Raptor or TSC2, cells were transduced with lentivirus encoding the tetracycline-sensitive tTR-KRAB repressor and a DsRed reporter. Cells were subsequently transfected with lentivirus encoding the specific shRNA, and a GFP reporter, (pLVTH vector), both preferably under the control of tTR-KRAB. For lentivirus-mediated knock down of Rictor a pLKO.1-based short hairpin construct specific for Rictor (Addgene plasmid 1853), as well as a scrambled control sequence (Addgene plasmid 1864) can in particular be supplied from Addgene. HeLa cells were transfected with viral supernatant twice as described previously and harvested 60 hours after transfection.
For calibration data sets, in particular HeLa cells can be starved for serum and amino acids by exchanging standard growth medium for Hank's Buffered Salt Solution (HBSS) (PAN Biotech GmbH, Aidenbach, Germany) over night to inhibit mTOR pathway activity. After 16 hours of starvation, mTOR signaling was restimulated with DMEM containing amino acids and supplemented with 100 nM insulin (Sigma Aldrich, St. Louis, Mo., USA).
Gradual knockdowns of Raptor or TSC2 can preferably be established by induction with 5 μg/ml doxycycline (Calbiochem, Merck, Darmstadt, Germany) for 0, 1, 2, or 3 days. Cells can be starved for 16 hours in HBSS and mTOR signaling was induced with DMEM (PAA, Pasching, Austria) supplemented with 100 nM insulin. […] Wortmannin or LY294002 can in particular be added 30 min prior to and during the stimulation with DMEM supplemented 100 nM insulin. Cells can for example be washed once with PBS and lysed with TNE lysis buffer [50 mM Tris HCL pH8.0, 150 mM NaCl, 1% v/v TritonX-100 (Calbiochem, Merck, Darmstadt, Germany), Complete (Roche, Mannheim, Germany), Phosphatase Inhibitor Cocktail 2, Phosphatase Inhibitor Cocktail 3 (both Sigma Aldrich, St. Louis, Mo., USA)]. Protein concentrations can preferably be measured (Protein Assay Dye Reagent Concentrate, Bio-Rad, Hercules, Calif., USA) according to manufacturer's protocol. Concentrations can for example be adjusted with lysis buffer. […] Whole cell lysates can for example be analyzed using SDS-PAGE gels. […]
(§2) HRP can for example be detected with the ECL Western Blotting Substrate or the SuperSignal West Femto reagent [Pierce Biotechnology (Thermo Scientific, Rockford, Ill. USA)], and the emitted light can in particular be detected and quantified with a chemiluminescence imaging analyzer (LAS4000mini; Fujifilm, Tokyo, Japan). Obtained images can preferably be analyzed with Multi-Gauge version 3.0 software (Fujifilm, Tokyo, Japan). […]

[2] = system: mTOR-pS2481 associated with the immunoprecipitated mTORC2; experiment: mTOR-pS2481 in mTORC2 immunoprecipitated with Sin1 antibody, HeLa cells; settings: Sin1 immunoprecipitation
Experimental: Immunoprecipitations can in particular be performed as described elsewhere. […] Immunoprecipitations were performed with 5 μg/ml antibody [antibody recognizing Sin1, Raptor, or rabbit IgG (all Bethyl)] and with magnetic Dynabeads Protein G (Invitrogen). Gradual knockdowns of Raptor or TSC2 can preferably be established by induction with 5 μg/ml doxycycline (Calbiochem, Merck, Darmstadt, Germany) for 0, 1, 2, or 3 days. Cells can be starved for 16 hours in HBSS and mTOR signaling was induced with DMEM (PAA, Pasching, Austria) supplemented with 100 nM insulin. […] Wortmannin or LY294002 can in particular be added 30 min prior to and during the stimulation with DMEM supplemented 100 nM insulin. […] Protein concentrations can preferably be measured (Protein Assay Dye Reagent Concentrate, Bio-Rad, Hercules, Calif., USA) according to manufacturer's protocol. […] Whole cell lysates can for example be analyzed using SDS-PAGE gels. […] HRP can for example be detected with the ECL Western Blotting Substrate or the SuperSignal West Femto reagent [Pierce Biotechnology (Thermo Scientific, Rockford, Ill. USA)], and the emitted light can in particular be detected and quantified with a chemiluminescence imaging analyzer (LAS4000mini; Fujifilm, Tokyo, Japan). Obtained images can preferably be analyzed with Multi-Gauge version 3.0 software (Fujifilm, Tokyo, Japan). […]

[3] = system: p70-S6K-pT389 (mTORC1 readout) in HeLa cells; experiment: p70-S6K-pT389 immunoblot of whole cell lysates, HeLa cells; settings: quantitation of 3 experiments; 200 nM PP242; Rapamycin; * P<0.05
Experimental: as §1, with “HeLa cells were transfected with viral supernatant twice as described previously and harvested 60 hours after transfection.” left out
(§3) Gradual knockdowns of Raptor or TSC2 can preferably be established by induction with 5 μg/ml doxycycline (Calbiochem, Merck, Darmstadt, Germany) for 0, 1, 2, or 3 days. […] Protein concentrations can preferably be measured (Protein Assay Dye Reagent Concentrate, Bio-Rad, Hercules, Calif., USA) according to manufacturer's protocol. […] Whole cell lysates can for example be analyzed using SDS-PAGE gels. […]
as §2, with “Japan).” for “Japan). Obtained images can preferably be analyzed with Multi-Gauge version 3.0 software (Fujifilm, Tokyo, Japan).”

[4] = system: mTOR-pS2481 in C2C12 cells; experiment: mTOR-pS2481 immunoblot in C2C12 myoblasts; settings: continuous presence of aa/insulin
Experimental: as §1, with “HeLa cells were transfected with viral supernatant twice as described previously and harvested 60 hours after transfection.” left out
as §3
as §2, with “Japan).” for “Japan). Obtained images can preferably be analyzed with Multi-Gauge version 3.0 software (Fujifilm, Tokyo, Japan).”

Akt-pS473 in HeLa cells = experiment: Akt-pS473 immunoblot of whole cell lysates, HeLa cells; settings: HeLa cells starved, induced by aa/insulin for 30 and 50 min
Experimental: as §1, with “HeLa cells were transfected with viral supernatant twice as described previously and harvested 60 hours after transfection.” left out
as §3
as §2, with “Japan).” for “Japan). Obtained images can preferably be analyzed with Multi-Gauge version 3.0 software (Fujifilm, Tokyo, Japan).”

O=c1cc(N2CCOCC2)oc2c(-c3ccccc3)cccc12 [LY294002]
LY294002 concentrations at which mTORpS2481 was reduced ([1]; HeLa cells (FIG. 10C)): ≥ 1 µM

CC(C)n1nc(-c2cc3cc(O)ccc3[nH]2)c2c(N)ncnc21 [PP242]
mTOR-pS2481 abundance ([1]; HeLa cells, short-term treatment): reduced the abundance of mTORpS2481 in a dose-dependent manner
mTOR-pS2481 compared to DMSO-treated control, significance (FIG. 1E) ([1]; quantitation of 3 experiments, 200 nM PP242, 100 nM Rapamycin, * P<0.05): significant
mTOR-pS2481 associated with the immunoprecipitated mTORC2 [2]: significantly reduced
p70-S6K-pT389 compared to DMSO-treated control, significance (FIG. 1D) [3]: significant
amount of mTOR-pS2481 [4]: decreased

COC[C@H]1OC(=O)c2coc3c2[C@@]1(C)C1=C(C3=O)[C@@H]2CCC(=O)[C@@]2(C)C[C@H]1OC(C)=O [Wortmannin]
Wortmannin concentrations at which mTORpS2481 was inhibited ([1]; HeLa cells starved, induced by aa/insulin for 30 and 50 min): ≥ 20 nM
Wortmannin concentration at which Akt-pS473 was already inhibited (Akt-pS473 in HeLa cells): 5 nM
Wortmannin concentrations at which Akt-pS473 was strongly inhibited (Akt-pS473 in HeLa cells): ≥ 10 nM
